Experimental data taken from ChEMBL document CHEMBL1240486, “Novel N-methylated 8-oxoisoguanines from Pacific sponges with diverse neuroactivities” (J Med Chem, 2010).
The source made the active and inactive calls. The calls are words filed in the database; no cut-off is given here.

Experiments:
Mus musculus [1] = test: Neurotoxicity in icv dosed ddY mouse assessed as 50% maximal convulsant dose measured for 60 mins; format: toxicity, organism-based; conditions: in vivo, icv_or_intrathecal, 1 h
Mus musculus [2] = test: Neurotoxicity in ddY mouse assessed as changes in behavioral activity at >75 nmol/mouse, icv measured for 60 mins; format: toxicity, organism-based; conditions: in vivo, icv_or_intrathecal, 1 h
Mus musculus [3] = test: Toxicity in ddY mouse assessed as death at 0.1 umol, icv; format: organism-based; conditions: in vivo, icv_or_intrathecal
Mus musculus [4] = test: Neurotoxicity in ddY mouse assessed as induction of occasional tonic extension of forelimbs and weakness of lower bodies at 0.1 umol, icv measured for 60 mins; conditions: in vivo, icv_or_intrathecal, 1 h
Mus musculus [5] = test: Neurotoxicity in ddY mouse assessed as changes in behavioral activity at 25 to 50 nmol/mouse, icv measured for 60 mins; format: toxicity, organism-based; conditions: in vivo, icv_or_intrathecal, 1 h
Mus musculus [6] = test: Neurotoxicity in ddY mouse assessed as changes in behavioral activity at 30 to 110 nmol/mouse, icv measured for 60 mins; format: toxicity, organism-based; conditions: in vivo, icv_or_intrathecal, 1 h
Mus musculus [7] = test: Neurotoxicity in ddY mouse assessed as induction of convulsions at 0.05 to 0.1 umol, icv measured for 60 mins; format: toxicity, organism-based; conditions: in vivo, icv_or_intrathecal, 1 h
Mus musculus [8] = test: Neurotoxicity in ddY mouse assessed as changes in behavioral activity at 14 nmol/mouse, icv measured for 60 mins; format: toxicity, organism-based; conditions: in vivo, icv_or_intrathecal, 1 h
Mus musculus [9] = test: Neurotoxicity in ddY mouse assessed as changes in behavioral activity at 100 nmol/mouse, icv measured for 60 mins; format: toxicity, organism-based; conditions: in vivo, icv_or_intrathecal, 1 h
Mu-type opioid receptor = Mu-type opioid receptor (Homo sapiens, UniProt P35372); test: Binding affinity to mu opioid receptor
Sequence of Mu-type opioid receptor (P35372 whole entry): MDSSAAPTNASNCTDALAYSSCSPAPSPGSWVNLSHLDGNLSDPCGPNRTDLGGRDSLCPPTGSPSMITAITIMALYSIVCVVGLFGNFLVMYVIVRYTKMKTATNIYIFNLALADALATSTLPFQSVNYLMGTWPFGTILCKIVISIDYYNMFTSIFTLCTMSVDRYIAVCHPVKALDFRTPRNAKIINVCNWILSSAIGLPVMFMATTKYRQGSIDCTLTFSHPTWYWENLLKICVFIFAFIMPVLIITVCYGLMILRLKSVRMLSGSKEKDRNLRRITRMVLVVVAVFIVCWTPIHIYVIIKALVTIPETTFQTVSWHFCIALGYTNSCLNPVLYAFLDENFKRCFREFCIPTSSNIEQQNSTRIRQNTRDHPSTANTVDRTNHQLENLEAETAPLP

[10] = Inhibition of GABAA receptor-mediated miniature inhibitory postsynaptic current in rat hippocampal neurons at 10 uM after 5 mins by whole-cell voltage clamp assay relative to baseline in presence of nonselective adenosine receptor antagonist CGS-15943; format: functional; conditions: Hippocampus
Mus musculus [11] = test: Neurotoxicity in ddY mouse assessed as changes in behavioral activity at >4 nmol/mouse, icv measured for 60 mins; format: toxicity, organism-based; conditions: in vivo, icv_or_intrathecal, 1 h
[12] = biological target: GABA A receptor alpha-4/beta-3/gamma-2 (Homo sapiens) (UniProt P18507+P28472+P48169); test: Antagonist activity at recombinant alpha-4-beta-3-gamma-2S receptor expressed in HEK 293-T/17 cells assessed as GABA-induced current at 30 uM by whole-cell recording relative to control; format: functional, cell-based; set-up: scale not given: the % may be the effect or the level left; conditions: HEK293
[13] = biological target: T1, Alpha-1D adrenergic receptor (Homo sapiens, UniProt P25100); test: Binding affinity to adrenergic Alpha-1D receptor
T1 sequence (P25100 whole entry): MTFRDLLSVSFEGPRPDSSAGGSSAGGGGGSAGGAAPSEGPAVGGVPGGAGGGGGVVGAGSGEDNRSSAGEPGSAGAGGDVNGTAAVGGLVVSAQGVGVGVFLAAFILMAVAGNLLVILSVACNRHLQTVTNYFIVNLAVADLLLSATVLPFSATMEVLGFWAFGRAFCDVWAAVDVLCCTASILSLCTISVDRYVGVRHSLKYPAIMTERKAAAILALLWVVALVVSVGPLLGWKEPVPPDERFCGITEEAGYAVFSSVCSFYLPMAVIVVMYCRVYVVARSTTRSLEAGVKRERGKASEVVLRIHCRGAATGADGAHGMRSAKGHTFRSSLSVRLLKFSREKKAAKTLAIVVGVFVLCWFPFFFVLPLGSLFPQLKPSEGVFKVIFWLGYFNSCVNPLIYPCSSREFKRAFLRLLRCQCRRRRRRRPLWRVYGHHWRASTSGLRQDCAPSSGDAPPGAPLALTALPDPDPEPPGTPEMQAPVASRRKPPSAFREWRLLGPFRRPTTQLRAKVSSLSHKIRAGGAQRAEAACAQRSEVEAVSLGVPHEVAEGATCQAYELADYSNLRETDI

Rattus norvegicus [14] = species: Rattus norvegicus; test: Effect on GABAA receptor-mediated spontaneous excitatory postsynaptic current in rat hippocampal neurons assessed as frequency of sEPSC bursts at 10 uM after 5 mins by whole-cell voltage clamp assay (reference value: 0.84 +/- 0.12 Hz); format: tissue-based; conditions: Hippocampus
Mus musculus [15] = species: Mus musculus; test: Inhibition of GABAA receptor-mediated inhibitory synaptic currents in juvenile mouse CA1 neurons at 30 uM by whole-cell voltage clamp assay in presence of SCH-50911
Mus musculus [16] = species: Mus musculus; test: Inhibition of excitatory postsynaptic current in juvenile mouse CA1 neurons at 30 uM by whole-cell voltage clamp assay
Rattus norvegicus [17] = species: Rattus norvegicus; test: Inhibition of GABAA receptor-mediated inhibitory synaptic currents in rat hippocampal neurons assessed as sEPSC bursts at 10 uM measured after compound washout by whole-cell voltage clamp assay; format: tissue-based; conditions: Hippocampus
Rattus norvegicus [18] = species: Rattus norvegicus; test: Inhibition of GABAA receptor-mediated inhibitory synaptic currents in rat hippocampal neurons assessed as sEPSC bursts at 10 uM after 5 mins by whole-cell voltage clamp assay (reference value: 5.6 +/- 1.6 Hz); format: tissue-based; conditions: Hippocampus
[19] = biological target: 5-hydroxytryptamine receptor 1E (Homo sapiens, UniProt P28566); test: Binding affinity to 5HT1E receptor
Sequence of 5-hydroxytryptamine receptor 1E (P28566 whole entry): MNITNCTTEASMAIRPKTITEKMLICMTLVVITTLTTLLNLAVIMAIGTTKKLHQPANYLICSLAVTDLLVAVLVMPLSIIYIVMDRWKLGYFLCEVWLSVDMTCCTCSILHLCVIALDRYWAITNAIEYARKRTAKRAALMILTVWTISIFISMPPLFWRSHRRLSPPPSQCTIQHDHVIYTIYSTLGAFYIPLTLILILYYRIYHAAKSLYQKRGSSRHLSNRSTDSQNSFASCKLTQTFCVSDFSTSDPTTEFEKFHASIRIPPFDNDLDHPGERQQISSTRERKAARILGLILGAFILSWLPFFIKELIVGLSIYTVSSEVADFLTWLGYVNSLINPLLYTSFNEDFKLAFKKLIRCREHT

[20] = biological target: T2, Alpha-1A adrenergic receptor (Homo sapiens, UniProt P35348); test: Binding affinity to adrenergic alpha1A receptor
T2 sequence (P35348 whole entry): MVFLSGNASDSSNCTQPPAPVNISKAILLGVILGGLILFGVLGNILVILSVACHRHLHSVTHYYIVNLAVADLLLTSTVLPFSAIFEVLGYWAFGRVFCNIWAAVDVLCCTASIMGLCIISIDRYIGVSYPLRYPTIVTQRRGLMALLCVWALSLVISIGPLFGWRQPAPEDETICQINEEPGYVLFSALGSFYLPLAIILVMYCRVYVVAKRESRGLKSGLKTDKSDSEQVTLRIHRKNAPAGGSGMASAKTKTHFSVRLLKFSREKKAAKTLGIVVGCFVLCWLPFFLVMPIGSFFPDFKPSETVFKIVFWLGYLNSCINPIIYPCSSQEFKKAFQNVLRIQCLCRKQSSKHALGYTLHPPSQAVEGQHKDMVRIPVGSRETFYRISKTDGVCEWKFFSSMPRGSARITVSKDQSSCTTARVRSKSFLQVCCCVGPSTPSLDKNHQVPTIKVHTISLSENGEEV

Rattus norvegicus [21] = species: Rattus norvegicus; test: Displacement of [3H]muscimol from GABA binding site of GABAA receptor in rat brain membrane at <10 uM; format: cell membranes
[22] = biological target: Kappa-type opioid receptor (Homo sapiens, UniProt P41145); test: Binding affinity to kappa opioid receptor
Sequence of Kappa-type opioid receptor (P41145 whole entry): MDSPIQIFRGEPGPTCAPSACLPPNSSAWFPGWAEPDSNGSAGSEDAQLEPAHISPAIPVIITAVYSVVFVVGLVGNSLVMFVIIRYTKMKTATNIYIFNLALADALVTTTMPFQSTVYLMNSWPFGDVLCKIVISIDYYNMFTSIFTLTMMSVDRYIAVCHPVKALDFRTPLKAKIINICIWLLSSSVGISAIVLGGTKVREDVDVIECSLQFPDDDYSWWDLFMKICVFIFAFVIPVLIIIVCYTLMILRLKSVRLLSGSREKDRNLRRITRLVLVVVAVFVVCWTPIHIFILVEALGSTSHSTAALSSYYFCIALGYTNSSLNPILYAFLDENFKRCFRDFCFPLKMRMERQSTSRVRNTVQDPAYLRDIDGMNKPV

Rattus norvegicus [23] = species: Rattus norvegicus; test: Inhibition of GABAA receptor-mediated miniature inhibitory postsynaptic current in rat hippocampal neurons at 10 uM after 5 mins by whole-cell voltage clamp assay relative to baseline; format: tissue-based; conditions: Hippocampus
Rattus norvegicus [24] = species: Rattus norvegicus; test: Displacement of [3H]kainate from kainate receptor in Sprague-Dawley rat synaptic membranes at 10 uM after 1 hr; format: cell membranes; conditions: Membrane
[25] = biological target: Neuronal acetylcholine receptor; alpha3/beta2 (Homo sapiens, UniProt P17787+P32297); test: Binding affinity to nicotinic alpha3beta2 receptor receptor; format: protein-complex assay
Sequence of Neuronal acetylcholine receptor; alpha3/beta2 (P17787 whole entry): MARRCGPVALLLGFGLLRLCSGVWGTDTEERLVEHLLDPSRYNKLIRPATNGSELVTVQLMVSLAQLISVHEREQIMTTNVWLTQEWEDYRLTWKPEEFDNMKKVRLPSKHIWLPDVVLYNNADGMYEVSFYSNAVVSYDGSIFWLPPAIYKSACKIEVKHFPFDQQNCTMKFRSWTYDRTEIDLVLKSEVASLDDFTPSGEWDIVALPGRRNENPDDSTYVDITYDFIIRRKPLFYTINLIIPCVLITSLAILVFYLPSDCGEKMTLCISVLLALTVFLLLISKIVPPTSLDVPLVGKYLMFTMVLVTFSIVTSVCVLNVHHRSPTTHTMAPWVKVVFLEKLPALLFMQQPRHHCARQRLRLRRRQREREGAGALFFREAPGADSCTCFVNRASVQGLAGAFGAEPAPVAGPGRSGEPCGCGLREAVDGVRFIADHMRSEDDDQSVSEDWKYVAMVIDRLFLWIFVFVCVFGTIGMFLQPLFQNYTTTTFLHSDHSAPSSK
Sequence of Neuronal acetylcholine receptor; alpha3/beta2 (P32297 whole entry): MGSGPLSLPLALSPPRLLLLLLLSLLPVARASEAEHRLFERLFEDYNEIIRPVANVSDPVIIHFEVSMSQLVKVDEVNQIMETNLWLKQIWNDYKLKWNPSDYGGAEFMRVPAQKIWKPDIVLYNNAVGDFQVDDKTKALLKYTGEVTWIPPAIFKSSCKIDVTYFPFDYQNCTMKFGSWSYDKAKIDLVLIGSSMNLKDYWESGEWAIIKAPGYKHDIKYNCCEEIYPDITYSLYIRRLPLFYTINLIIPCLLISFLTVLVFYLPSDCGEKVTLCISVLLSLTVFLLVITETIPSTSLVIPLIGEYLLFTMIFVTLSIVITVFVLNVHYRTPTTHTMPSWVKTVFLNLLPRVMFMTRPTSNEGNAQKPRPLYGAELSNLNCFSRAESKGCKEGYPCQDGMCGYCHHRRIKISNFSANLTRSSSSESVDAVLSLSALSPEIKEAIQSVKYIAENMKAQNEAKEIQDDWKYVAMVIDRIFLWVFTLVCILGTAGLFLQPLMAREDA

Mus musculus [26] = species: Mus musculus; test: Inhibition of GABAA receptor-mediated inhibitory synaptic currents in juvenile mouse CA1 neurons at 30 uM by whole-cell voltage clamp assay
Mus musculus [27] = species: Mus musculus; test: Inhibition of GABAA receptor-mediated inhibitory synaptic currents in juvenile mouse CA1 neurons at 30 uM by whole-cell voltage clamp assay in presence of prazosin
Rattus norvegicus [28] = species: Rattus norvegicus; test: Inhibition of GABAA receptor-mediated postsynaptic current in rat hippocampal neurons at 30 uM after 5 mins by whole-cell voltage clamp assay; format: tissue-based; conditions: Hippocampus
Rattus norvegicus [29] = species: Rattus norvegicus; test: Displacement of [3H]AMPA from AMPA receptor in Sprague-Dawley rat synaptic membranes at 10 uM after 1 hr; format: cell membranes; conditions: Membrane
Rattus norvegicus [30] = species: Rattus norvegicus; test: Inhibition of GABAA receptor-mediated postsynaptic current in rat hippocampal neurons at 10 uM after 5 mins by whole-cell voltage clamp assay; format: tissue-based; conditions: Hippocampus
Rattus norvegicus [31] = species: Rattus norvegicus; test: Displacement of [3H]flunitrazepam from benzodiazepine binding site of GABAA receptor in rat brain membrane at <10 uM; format: cell membranes
[32] = biological target: Glutamate receptor 4 (Homo sapiens) (UniProt P48058); test: Antagonist activity at recombinant GluA4 receptor expressed in HEK 293-T/17 cells assessed as glutamate-induced current at 100 uM by whole-cell recording relative to control; format: functional, cell-based; set-up: scale not given: the % may be the effect or the level left; conditions: HEK293
Sequence of Glutamate receptor 4 (Homo sapiens) (P48058 whole entry): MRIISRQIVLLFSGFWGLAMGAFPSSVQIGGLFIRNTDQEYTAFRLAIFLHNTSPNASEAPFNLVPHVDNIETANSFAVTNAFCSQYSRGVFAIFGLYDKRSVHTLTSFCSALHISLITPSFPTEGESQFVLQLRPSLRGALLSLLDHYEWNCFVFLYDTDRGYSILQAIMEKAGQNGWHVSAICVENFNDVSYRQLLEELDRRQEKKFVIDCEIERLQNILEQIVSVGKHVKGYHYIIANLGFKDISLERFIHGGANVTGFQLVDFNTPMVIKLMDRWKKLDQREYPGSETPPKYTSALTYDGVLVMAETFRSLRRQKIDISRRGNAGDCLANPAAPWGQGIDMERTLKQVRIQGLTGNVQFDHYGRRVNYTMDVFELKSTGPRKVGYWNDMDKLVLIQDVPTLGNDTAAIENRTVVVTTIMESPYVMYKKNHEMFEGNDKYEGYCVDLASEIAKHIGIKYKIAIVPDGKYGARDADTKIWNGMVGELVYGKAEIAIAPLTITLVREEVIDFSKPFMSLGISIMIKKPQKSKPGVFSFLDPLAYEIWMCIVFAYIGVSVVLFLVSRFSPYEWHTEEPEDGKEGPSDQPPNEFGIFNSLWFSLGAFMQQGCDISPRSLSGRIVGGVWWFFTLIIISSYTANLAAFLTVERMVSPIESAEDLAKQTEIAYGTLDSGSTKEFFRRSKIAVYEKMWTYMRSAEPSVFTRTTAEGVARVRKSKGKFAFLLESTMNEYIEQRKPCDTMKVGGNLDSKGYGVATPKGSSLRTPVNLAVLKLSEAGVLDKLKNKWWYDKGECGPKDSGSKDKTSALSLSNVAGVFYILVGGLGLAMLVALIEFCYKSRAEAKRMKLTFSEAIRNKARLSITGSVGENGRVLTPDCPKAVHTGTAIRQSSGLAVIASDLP

[33] = biological target: Glutamate NMDA receptor (Rattus norvegicus) (UniProt P35439+Q00959+Q00960+Q00961+Q62645+Q8VHN2+Q9R1M7); test: Displacement of [3H]CGP39653 from NMDA receptor in Sprague-Dawley rat synaptic membranes at 10 uM after 1 hr; format: cell membranes; conditions: Membrane
Mus musculus [34] = test: Neurotoxicity in ddY mouse assessed as changes in behavioral activity at 1 nmol/mouse, icv measured for 60 mins; format: toxicity, organism-based; conditions: in vivo, icv_or_intrathecal, 1 h
Rattus norvegicus [35] = species: Rattus norvegicus; test: Inhibition of GABAA receptor-mediated miniature excitatory postsynaptic current in rat hippocampal neurons assessed as EPSC bursts at 10 uM after 5 mins by whole-cell voltage clamp assay (Rvb 0.69 +/- 0.21 Hz); format: tissue-based; conditions: Hippocampus
[36] = biological target: T3, Alpha-1B adrenergic receptor (Homo sapiens, UniProt P35368); test: Binding affinity to adrenergic Alpha-1B receptor
T3 sequence (P35368 whole entry): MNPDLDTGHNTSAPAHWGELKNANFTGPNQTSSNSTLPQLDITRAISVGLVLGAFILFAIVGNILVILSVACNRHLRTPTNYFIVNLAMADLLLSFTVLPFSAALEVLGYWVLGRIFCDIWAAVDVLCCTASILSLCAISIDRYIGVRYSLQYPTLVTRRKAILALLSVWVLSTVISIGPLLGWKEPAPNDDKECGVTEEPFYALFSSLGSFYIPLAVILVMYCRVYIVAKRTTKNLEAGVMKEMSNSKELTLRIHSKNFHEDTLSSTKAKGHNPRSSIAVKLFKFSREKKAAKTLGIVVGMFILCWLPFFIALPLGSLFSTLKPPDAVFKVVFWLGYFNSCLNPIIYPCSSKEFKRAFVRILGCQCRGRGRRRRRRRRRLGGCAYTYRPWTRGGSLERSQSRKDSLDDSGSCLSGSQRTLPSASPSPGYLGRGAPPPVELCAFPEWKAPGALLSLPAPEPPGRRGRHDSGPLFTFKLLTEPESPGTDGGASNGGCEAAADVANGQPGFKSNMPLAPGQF

Cl.Cn1c(=N)c2[nH]c(=O)[nH]c2n(C)c1=O
Activity (Mus musculus [1]): 54 nmol
Activity (Mus musculus [2]): Toxic
Activity (Mus musculus [3]): Toxic
Activity (Mus musculus [4]): Toxic
Activity (Mus musculus [5]): Toxic

Cl.Cn1c(=O)[nH]c2c(=N)[nH]c(=O)[nH]c21
Activity (Mus musculus [6]): Toxic
Activity (Mus musculus [1]): 18 nmol
Activity (Mus musculus [7]): Toxic
Activity (Mus musculus [8]): Toxic

Cl.Cn1c(=O)[nH]c(=N)c2[nH]c(=O)n(C)c21
Activity (Mus musculus [9]): Toxic

Cl.Cn1c(=O)[nH]c2c([nH]c(=O)n2C)c1=N
Ki (Mu-type opioid receptor): 8900 nM
inhibition at 10 µM [10]: 29.6%
Activity (Mus musculus [11]): Toxic
Activity [12]: 93%
Ki [13]: 497 nM
Activity (Rattus norvegicus [14]): 0.9 Hz
inhibition (Mus musculus [15]): Active
inhibition (Mus musculus [16]): 22%
Activity (Rattus norvegicus [17]): 6 Hz
Activity (Mus musculus [1]): 2.4 nmol
Activity (Rattus norvegicus [18]): 3.6 Hz
Ki [19]: 2900 nM
Ki [20]: 885 nM
inhibition (Rattus norvegicus [21]): inactive
Ki [22]: 1800 nM
inhibition (Rattus norvegicus [23]): 32%
inhibition (Rattus norvegicus [24]): inactive
Ki [25]: 4200 nM
inhibition (Mus musculus [26]): 71%
inhibition (Mus musculus [27]): Active
inhibition (Rattus norvegicus [28]): Active
inhibition (Rattus norvegicus [29]): inactive
inhibition (Rattus norvegicus [30]): Active
inhibition (Rattus norvegicus [31]): inactive
Activity [32]: 100%
inhibition [33]: inactive
Activity (Mus musculus [34]): Toxic
Activity (Rattus norvegicus [35]): 0.95 Hz
Ki [36]: 758 nM
